Assay results as given in paper PMC7221806, “PF74 and Its Novel Derivatives Stabilize Hexameric Lattice of HIV-1 Mature-Like Particles” (Molecules, 2020).

Experiments:
[1] = Cytotoxicity, resazurin assay; format: cell-based; settings: human, HEK 293T cells, 24 h treatment
HIV-1 [2] = experiment: microbe, parasite or virus in culture; format: cell-based; settings: for IC50: Human immunodeficiency virus 1, HEK293, 48 h
HIV-1 CANC [3] = target: T1, HIV-1 CANC (Human immunodeficiency virus type 1 group M subtype B, UniProt P12493); experiment: Disassembly inhibitor test for HIV (DITH), stability of preassembled CANC particles, with TEM; settings: 10 µM; for TEM of CANC particles after incubation in disassembly buffer: after DITH, negative staining; for relative stability of HIV-1 CANC assemblies in disassembly buffer: CANC without inhibitor in disassembly buffer = 0%
[4] = Cytotoxic effect on OMK cells; format: cell-based; settings: owl monkey, OMK (owl monkey kidney) cells
HIV-1 CANC [5] = target: T1, HIV-1 CANC; experiment: Fast Assembly Inhibitor Test for HIV (FAITH), in vitro assembly of mature-like particles, with TEM; settings: 10 µM; for TEM phenotype of CANC assembled in presence of inhibitor: after FAITH, negative staining
HIV-1 [6] = format: cell-based; settings: OMK cells, 10 µM, 2.5 µM CsA

Compound	CC50 at 24 h [1] [µM]	IC50 (HIV-1 [2]) [µM]	stabilization of HIV-1 CANC compared with PF74 (in words) (HIV-1 CANC [3])	TEM of CANC particles after incubation in disassembly buffer (HIV-1 CANC [3])	inhibitory activity against HIV-1 compared with PF74 (in words) (HIV-1 [2])	CC50 [4] [µM]	relative stability of HIV-1 CANC assemblies in disassembly buffer (HIV-1 CANC [3])	TEM phenotype of CANC assembled in presence of inhibitor (HIV-1 CANC [5])	effect on HIV-1 infectivity / uncoating in CsA-washout assay (in words) (HIV-1 [6])	effect on assembly of mature-like CANC particles (in words) (HIV-1 CANC [5]; CANC without inhibitor = 100%)
CC(C)Cc1ccc([C@@H](C)C(=O)N[C@@H](Cc2ccccc2)C(=O)N(C)c2ccccc2)cc1 [D4R, (S)-2-((R)-2-(4-isobutylphenyl)propanamido)-N-methyl-N,3-diphenylpropanamide]	27 ± 3.5	> 20	lower effect on HIV-1 CANC stability than PF74	mainly disassembled material	–	–	–	–	–	–
CN(C(=O)[C@H](Cc1ccccc1)NC(=O)NCc1nc2ccccc2[nH]1)c1ccccc1 [D10, (S)-2-(3-((1H-benzo[d]imidazol-2-yl)methyl)ureido)-N-methyl-N,3-diphenylpropanamide]	10 ± 1.6	0.5 ± 0.3	more potent stabilizers than PF74	intact CANC particles	better inhibitory activity against HIV-1 than PF74	< 3	90%	predominant formation of cone-like and shorter tubular structures	–	–
CN(C(=O)[C@H](Cc1ccccc1)NC(=O)[C@@H]1Cc2ccccc2C(=O)N1)c1ccccc1 [D7, (S)-N-((S)-1-(methyl(phenyl)amino)-1-oxo-3-phenylpropan-2-yl)-1-oxo-1,2,3,4--tetrahydroisoquinoline-3-carboxamide]	> 40	> 20	lower effect on HIV-1 CANC stability than PF74	mainly disassembled material	–	–	–	long, tubular structures	–	–
Cc1[nH]c2ccccc2c1CC(=O)N[C@@H](Cc1ccccc1)C(=O)N(C)c1ccccc1 [PF74]	> 40	1.75 ± 0.5	–	intact CANC particles	–	–	about 60%	predominant formation of cone-like and shorter tubular structures	strongest impact on HIV-1 infectivity in OMK cells at the early stage of HIV-1 infection	no effect
CN(C(=O)[C@H](Cc1ccccc1)NC(=O)Cc1c[nH]c2ccccc12)c1ccccc1 [D1, (S)-2-(2-(1H-indol-3-yl)acetamido)-N-methyl-N,3-diphenylpropanamide]	> 40	3.5 ± 0.6	only slightly less active in stabilization than PF74	–	only slightly weaker than that of PF74	–	–	–	strongest impact on HIV-1 infectivity in OMK cells at the early stage of HIV-1 infection	–
COc1ccc2c(c1)c(CC(=O)N[C@@H](Cc1ccccc1)C(=O)N(C)c1ccccc1)c(C)n2C(=O)c1ccc(Cl)cc1 [D2, (S)-2-(2-(1-(4-chlorobenzoyl)-5-methoxy-2-methyl-1H-indol-3-yl)acetamido)-N-methyl--N,3-diphenylpropanamide]	> 40	8 ± 1.2	lower effect on HIV-1 CANC stability than PF74	mainly disassembled material	–	–	–	–	–	–
CN(C(=O)[C@H](Cc1ccccc1)NC(=O)[C@@H]1Cc2ccccc2C(=O)N1C)c1ccccc1 [D8S, (S)-2-methyl-N-((S)-1-(methyl(phenyl)amino)-1-oxo-3-phenylpropan-2-yl)-1-oxo--1,2,3,4-tetrahydroisoquinoline-3-carboxamide]	> 40	> 20	lower effect on HIV-1 CANC stability than PF74	mainly disassembled material	–	–	–	–	–	–
CN(C(=O)[C@H](Cc1ccccc1)NC(=O)[C@H]1Cc2ccccc2C(=O)N1C)c1ccccc1 [D8R, (R)-2-methyl-N-((S)-1-(methyl(phenyl)amino)-1-oxo-3-phenylpropan-2-yl)-1-oxo--1,2,3,4-tetrahydroisoquinoline-3-carboxamide]	> 40	4.5 ± 1.5	lower effect on HIV-1 CANC stability than PF74	mainly disassembled material	only slightly weaker than that of PF74	–	–	–	major effect	–
CN(C(=O)[C@H](Cc1ccccc1)NC(=O)Cc1n[nH]c2ccccc12)c1ccccc1 [D9, (S)-2-(2-(1H-indazol-3-yl)acetamido)-N-methyl-N,3-diphenylpropanamide]	> 40	3.4 ± 0.9	more potent stabilizers than PF74	intact CANC particles	only slightly weaker than that of PF74	–	80%	–	highly active during the first two hours post infection, then its activity dropped	–
